Laboratory results as given in patent US7122314B2, “Methods for detecting vancomycin-resistant microorganisms and compositions therefor” (ID Biomedical Corporation, priority 2002, dated 2006).

Legend:
[1] = tested on: VanA phenotype enterococci; settings: inducible resistance; cited from earlier work
vanA and vanB genes = test: Non-isotopic CPT-EIA VRE screen of enterococcal isolates; settings: threshold 0.14 OD650; 27 isolates, five operators
Description: This following example describes a rapid single probe non-isotopic CPT assay for screening dual VRE genes (vanA and vanB) from Enterococcal isolates. The non-isotopic VRE assay, which combines CPT with an enzyme immunoassay (CPT-EIA), is schematically illustrated in FIG. 2. Because of the lack of homology between the vanA and vanB genes, it was not possible to find a common sequence that was suitable for a perfectly complementary CPT chimeric probe. It was necessary to design a probe that had two mismatches to vanA in the 5′ DNA arm and two mismatches to vanB in the 3′ DNA arm. In spite of the mismatches, the probe worked well to discriminate vanA and vanB from vanC and VSE isolates.
The dual detection single chimeric probe specific for detecting vanA and vanB genes are synthesized, fluoresceinated and biotinylated as described in Example 1. The purified thermostable RNase H is prepared as described in Example 3.
The sources of Enterococcal isolates and growth conditions are as described in Example 2. Lysis
The cells are lysed by placing a 1-μL loopful of culture growth in 50 μL of Lysis Reagent. […]
After cycling, 3 drops (˜100 μL) of Cycle Stop Reagent containing sheep polyclonal antifluorescein-horseradish peroxidase (HRP) conjugate and 0.16% SDS in Peroxidase Stabilizing Buffer (DAKO, Mississauga, ON) is added to the cycling reaction. […] The plate is read with a Vmax plate reader at OD650. […]

| Compound | MIC [1] [µg/mL] | sensitivity (vanA and vanB genes) [%] | specificity (vanA and vanB genes) [%] |
| --- | --- | --- | --- |
| CN[C@H](CC(C)C)C(=O)N[C@H]1C(=O)N[C@@H](CC(N)=O)C(=O)N[C@H]2C(=O)N[C@H]3C(=O)N[C@H](C(=O)N[C@H](C(=O)O)c4cc(O)cc(O)c4-c4cc3ccc4O)[C@H](O)c3ccc(c(Cl)c3)Oc3cc2cc(c3O[C@@H]2O[C@H](CO)[C@@H](O)[C@H](O)[C@H]2O[C@H]2C[C@](C)(N)[C@H](O)[C@H](C)O2)Oc2ccc(cc2Cl)[C@H]1O [vancomycin] | ≥ 64 | – | – |
| teicoplanin | ≥ 16 | – | – |
| 5′-CAT GAT GTG TCG GTa aaa TCT GCA ATA GAG A-3′ (DNA CATGATGTGTCGGTAAAATCTGCAATAGAGA; scissile link, further chemistry not given here) [vanB110-m3] | – | 98.7 | 100 |
